Results reported in patent US12194082B2, “Compositions and methods for treatment of homocystinuria” (THE REGENTS OF THE UNIVERSITY OF COLORADO, priority 2016, dated 2025).

What was measured:
[1] = system: Hcy, Cth, Cys, and Met; test: Plasma metabolites in I278T mice of the DEXA study; format: in vivo; details: continuous long-term administration
Description: Plasma metabolites were determined in the same mice/groups as described above and compared to each other. The left bar represents the level of metabolite for +/− healthy controls, and the middle bar represents the level of metabolite for −/− affected controls. The levels of each metabolite in 20NHS PEG-htCBS C15S-treated mice is represented by the right bar.

[2] = system: I278T mice; test: DEXA bone mineralization and body composition in I278T mice; format: in vivo, mouse; details: 7.5 mg/kg SC 3x/week from 6 to 13 months of age
Description: A PIXImusII DEXA scanner (GE Lunar Medical Systems) specifically designed for scanning small animals such as mice was used for DEXA analysis. This machine enabled quick and efficient determination of the body composition (lean, fat mass, and bone density) of a mouse before terminal tissue extraction procedures. Mice were fasted for 4 hours prior to the DEXA measurement to remove food from the gastro-intestinal tract. Mice were then anesthetized using IP bolus injection of 60 mg/kg ketamine and 15 mg/kg xylazine and placed on a tray in the DEXA machine. After the measurement was done (3˜5 minutes), the mice were removed from the DEXA machine and used in terminal procedures, such as tissue extractions.
The bone mineral density (BMD) and bone mineral content (BMC) were analyzed by DEXA for three groups of I278T mice: +/− healthy heterozygous controls (n=10M+11F), −/− affected homozygous I278T controls (n=6M+8F), and 20NHS PEG-htCBS C15S-treated I278T mice (n=6M+6F). The 20NHS PEG-htCBS C15S (C15S/ME-200GS)-treated I278T mice were administered 7.5 mg/kg subcutaneously (SC) 3 times per week from the age of 6 months up to the age of 13 months. FIG. 17A, FIG. 17B, FIG. 17C, FIG. 17D, and FIG. 17E are graphs comparing BMD (g/cm^2), BMC (g), total mass (g), lean mass (g), and fat content (%), respectively, among the three groups of mice. […]

[3] = system: Hcy, Cys; test: Continuous administration by ALZET osmotic pump in HO mice; format: in vivo; details: ALZET Model 2004 or 2006 pumps
Description: ALZET® osmotic pumps provide steady, controlled delivery of the 20NHS PEG-htCBS C15S for a prolonged period of time in fresh and naïve HO mice. The htCBS C15S PEGylated with ME-200GS was administrated using four different models of micro-osmotic ALZET® pumps, which continuously dispensed a volume of enzyme per hour instead of repeated subcutaneous injections: Model 1002 (0.25 μl/h), Model 2002 (0.5 μl/h), Model 2004 (0.25 μl/h), and Model 2006 (0.15 μl/h).
For pain relief, pre- and post-operatively, animals were also administered TYLENOL® (2 mg/ml) in water bottles ad libitum for 48 hours before and after surgery for implantation of the ALZET® pump. In addition, the animals received 5 mg/kg of carprofen subcutaneously every 24 hours, and for 48 hours postoperatively. For anesthesia during surgery, 5% isoflurane was administered by inhalation and maintained at 2-3% during surgery. While mice were anesthetized, they each received a medical grade ALZET® osmotic pump implanted under sterile conditions in a biological safety cabinet. Pumps were implanted subcutaneously in the loose skin area on the ventral side of the neck. Prior to implanting the pump, the mice were shaved and the skin area was prepped with BETADINE®. Pump implantation required a small surgical incision (5 mm) made with sterile scissors. […]

[4] = system: Hcy, Cth, Cys; test: Plasma metabolites in surviving treated KO mice (trough and peak); format: in vivo; details: 7.5 mg/kg 3x weekly
Description: Plasma metabolites homocysteine, cystathionine and cysteine were determined by stable-isotope-dilution liquid chromatography mass spectrometry as previously described in (Allen et al., 1993, Metabolism, 42: 1448-1460). Measurements of total non-protein bound homocysteine and other aminothiols as well as of amino acids in tissue were performed as described in (Maclean et al., 2010b. Mol. Genet. Metab. 101, 153-162). Metabolites were determined by stable-isotope-dilution liquid chromatography mass spectrometry.
Metabolite levels in surviving KO mice at age of about 4-5 weeks were measured after a weekend washout (trough) and 24 hours after the last injection (peak) using the experimental procedure in Example 1.

In the case of “20NHS PEG-htCBS C15S: htCBS C15S PEGylated with ME-200GS PEG (20 kDa linear NHS ester-activated PEG)”, the “Hcy, Cth, Cys and Met plasma levels vs untreated −/− mice” value [1] is reported as “significantly improved”, the “bone mineralization (BMD) vs healthy heterozygous controls” value [2] is reported as “indistinguishable” and the “osteoporosis and body composition (DEXA)” value [2] is reported as “prevented profound osteoporosis and improved body composition”. The Cys plasma levels [3] was “only a modest increase”, the “plasma levels of Hcy” value [3] was “substantially reduced” and the “plasma Cys” value ([4]; 24 hours post-dose) was 176 ± 6 µM. For the same substance, the “plasma Hcy” value ([4]; 24 hours post-dose) was 96 ± 8 µM, the “plasma Cys” value ([4]; 72 hours post-dose) was 106 ± 6 µM and the “plasma Hcy” value ([4]; 72 hours post-dose) was 179 ± 10 µM.
